# Source: patent publication US10927097B2, “Indole compound as inhibitor of necrosis” (LG CHEM, LTD., priority 2013, dated 2021)
# System: primary hepatocytes isolated from rats
# Test: Hepatocyte protective effect against doxorubicin treatment (cell viability, WST-1)
# Assay type: cell-based
# Details: Hepatocyte, primary rat hepatocytes pretreated with compound for 30 min, viability by WST-1 after 24-48 hours
# Method: Various endogenous/exogenous attacks on cells trigger the mechanisms of cell death which is broadly classified into two types—i.e., apoptosis or necrosis. Using these cell death mechanisms, in the present experimental example, primary hepatocytes isolated from rats were treated with drugs which were clinically shown to result in serious side-effects of hepatocyte toxicity or various chemicals which derive cell death, and the compounds synthesized in the Examples were estimated for their hepatocyte protective effects, after 24-48 hours. The substances used to cause hepatocyte death include CCl4, ActD, H2O2, doxorubicin, anti-Fas Ab/Actinomycin D, acetaminophen, EtOH, CdCl2, palmitate, stearate, cyclophosphamide, terfenadine, diclofenac, simvastatin, and adefovir. Primary hepatocytes were isolated using the method of Seglen P O (Experimental Cell Research 74 (1972), pp. 450-454). Briefly, hepatocytes were isolated according to the two-step collagenase perfusion method, and dead cells were removed by low speed (500 rpm) centrifugation for 10 min using percoll gradient (Kreamer B L et al., In Vitro Cellular & Developmental Biology 22 (1986), pp. 201-211). During this step, the viability of cells was maintained 90% or above. The cells were suspended in HepatoZYME media (Gibco BRL), and the number of cells was counted. 1.5×10^4 cells in 100 μl were placed into the collagen-coated 96-well plate (BD Biocoat), and adhered on the bottom for 3-4 hours.
# In order to assess the hepatocyte protective effect, the above adhered cells were pretreated with the Example compounds for 30 min. At this time, the concentration of the Example compounds was serially diluted by 2-fold or 3-fold over 5 steps starting from 30 μM, 10 μM or 1 μM depending on the experiments, and the final concentration of DMSO was adjusted to 0.2%. 30 min after the treatment by the compounds, the cells were treated by the substances causing hepatocyte death or hepatotoxic drugs at the concentrations indicated in Table 1. After 24-48 hours, the viability of cells was determined to estimate the hepatocyte protective effect. The viability of cells was determined using the WST-1 (MK-400, Takeda) method by the absorbance at 440 nm. Hepatocyte protective effects of the Example compounds were represented by “EC50” which was calculated from measured values. “EC50” herein means the concentration of the compound at which 50% of maximum protective effect is observed in the experiment.
row,Compound,EC50 [nM]
1,"O=C1CN(Cc2cc3cc(Cl)cc(NC4CCCC4)c3[nH]2)CCN1 [Example 1, 4-(5-Chloro-7-cyclopentylamino-1H-indol-2-ylmethyl)-piperazin-2-one]",160
2,"CC(=O)N1CCC(Nc2cc(Cl)cc3cc(CCN4CCNC(=O)C4)[nH]c23)CC1 [Example 3, 4-{2-[7-(1-Acetyl-piperidin-4-ylamino)-5-chloro-1H-indol-2-yl]-ethyl}-piperazin-2-one]",270
3,"Cc1cc(NCC2CCOCC2)c2[nH]c(CN3CCS(=O)(=O)CC3)cc2c1 [Example 7, [2-(1,1-Dioxothiomorpholin-4-ylmethyl)-5-methyl-1H-indol-7-yl]-(tetrahydropyran-4-ylmethyl)-amine]",440
4,"Cc1cc(NC2CCCC2)c2[nH]c(CN3CCS(=O)(=O)CC3)cc2c1 [Example 8, Cyclopentyl-[2-(1,1-dioxothiomorpholin-4-ylmethyl)-5-methyl-1H-indol-7-yl]-amine]",240
5,"O=C1CN(CCc2cc3cc(Cl)cc(NCc4ccccc4)c3[nH]2)CCN1 [Example 14, 4-[2-(7-Benzylamino-5-chloro-1H-indol-2-yl)-ethyl]-piperazin-2-one]",300
6,"O=S1(=O)CCN(CCc2cc3cc(Cl)cc(NC4CCCC4)c3[nH]2)CC1 [Example 19, {5-Chloro-2-[2-(1,1-dioxothiomorpholin-4-yl)-ethyl]-1H-indol-7-yl}-cyclopentyl-amine]",270
7,"O=C1CN(CCc2cc3cc(Cl)cc(NCC4CCOCC4)c3[nH]2)CCN1 [Example 22, 4-(2-{5-Chloro-7-[(tetrahydropyran-4-ylmethyl)-amino]-1H-indol-2-yl}-ethyl)-piperazin-2-one]",900
8,"Clc1cc(NC2CCCC2)c2[nH]c(C3CCNCC3)cc2c1 [Example 48, (5-Chloro-2-piperidin-4-yl-1H-indol-7-yl)-cyclopentyl-amine]",210

# Same assay, conditions: primary rat hepatocytes pretreated with compound for 30 min, viability by WST-1 after 24-48 hours
row,Compound,EC50 [nM]
1,"1-(4-{5-Chloro-2-[2-(3-trifluoromethyl-5,6,7,8-tetrahydro-[1,2,4]triazolo[4,3-a]pyrazin-1-yl)-ethyl]-1H-indol-7-yl}-piperidin-1-yl)-ethanone [Example 13]",1800
2,4-[5-Methyl-7-(tetrahydropyran-4-ylmethylamino)-1H-indol-2-ylmethyl)-piperazin-2-one [Example 9],250
3,CS(=O)(=O)N1CCC(Nc2cc(Cl)cc3cc(CCN4CCn5c(nnc5C(F)(F)F)C4)[nH]c23)CC1 [Example 12],600
4,O=S1(=O)CCN(CCc2cc3cc(Cl)cc(NC4CCOCC4)c3[nH]2)CC1 [Example 18],240
